Reference: the supplement of paper PMC5908809

Key:
[1] = system: normal NK cells expanded with K562-aAPC; experiment: drug sensitivity score (DSS) (DSS units); higher = more sensitive; extreme values may be limits of the assay; conditions: 72 h; IL-2 2.5 ng/mL
Procedure: (§1)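 Drug sensitivity and resistance testing on K562-aAPC-expanded normal NK cells: 5 concentrations (10-fold steps over a 10,000-fold range), 72 h at 37 °C, viability by CellTiter-Glo normalised to DMSO and benzethonium chloride controls; DSS from the fitted curve.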

[2] = system: normal NK cells expanded with K562-aAPC; experiment: percent inhibition of viability; higher = more inhibition; conditions: 72 h, IL-2 2.5 ng/mL
Procedure: as §1

[3] = system: normal primary NK cells, pool 1 (3 donors), resting (IL-2 0 ng/mL); experiment: as above; conditions: 72 h
[4] = system: normal primary NK cells, pool 2 (3 donors) (IL-2 2.5 ng/mL); experiment: as above; conditions: 72 h
[5] = system: KAI3 (IL-2 2.5 ng/mL); experiment: as above; conditions: 72 h
[6] = system: KHYG-1 (IL-2 2.5 ng/mL); experiment: as above; conditions: 72 h
[7] = system: NKL (IL-2 2.5 ng/mL); experiment: as above; conditions: 72 h
[8] = system: YT (IL-2 2.5 ng/mL); experiment: as above; conditions: 72 h
[9] = system: IMC-1 (IL-2 20 ng/mL); experiment: as above; conditions: 72 h
[10] = system: DERL-7 (IL-2 2.5 ng/mL); experiment: as above; conditions: 72 h
[11] = system: NK-92 (IL-2 2.5 ng/mL); experiment: as above; conditions: 72 h
[12] = system: normal primary NK cells, pool 3 (3 donors) (IL-2 2.5 ng/mL); experiment: as above; conditions: 72 h
[13] = system: NK-YS (IL-2 2.5 ng/mL); experiment: as above; conditions: 72 h
[14] = system: normal primary NK cells, pool 1 (3 donors) (IL-2 2.5 ng/mL); experiment: as above; conditions: 72 h
[15] = system: SNK-6 (IL-2 2.5 ng/mL); experiment: as above; conditions: 72 h
[16] = system: normal primary NK cells, pool 1 (3 donors), resting (IL-2 0 ng/mL); experiment: drug sensitivity score (DSS) (DSS units); higher = more sensitive; extreme values may be limits of the assay; conditions: 72 h
[17] = system: normal primary NK cells, pool 2 (3 donors) (IL-2 2.5 ng/mL); experiment: as above; conditions: 72 h
[18] = system: KAI3 (IL-2 2.5 ng/mL); experiment: as above; conditions: 72 h
[19] = system: KHYG-1 (IL-2 2.5 ng/mL); experiment: as above; conditions: 72 h
[20] = system: NKL (IL-2 2.5 ng/mL); experiment: as above; conditions: 72 h
[21] = system: YT (IL-2 2.5 ng/mL); experiment: as above; conditions: 72 h
[22] = system: IMC-1 (IL-2 20 ng/mL); experiment: as above; conditions: 72 h
[23] = system: DERL-7 (IL-2 2.5 ng/mL); experiment: as above; conditions: 72 h
[24] = system: NK-92 (IL-2 2.5 ng/mL); experiment: as above; conditions: 72 h
[25] = system: normal primary NK cells, pool 3 (3 donors) (IL-2 2.5 ng/mL); experiment: as above; conditions: 72 h
[26] = system: NK-YS (IL-2 2.5 ng/mL); experiment: as above; conditions: 72 h
[27] = system: normal primary NK cells, pool 1 (3 donors) (IL-2 2.5 ng/mL); experiment: as above; conditions: 72 h
[28] = system: SNK-6 (IL-2 2.5 ng/mL); experiment: as above; conditions: 72 h

CC(C)N(CCCNC(=O)Nc1ccc(C(C)(C)C)cc1)C[C@H]1O[C@@H](n2cc(Br)c3c(N)ncnc32)[C@H](O)[C@@H]1O [SGC0946] (max concentration tested 10000 nM)
Conditions | drug sensitivity score
[1] | 0.11
[16] | 2.93
[17] | 0.89
[18] | 4.84
[19] | 0.48
[20] | 1.63
[21] | 1.23
[22] | 0.74
[23] | 1.92
[24] | 3.88
[25] | 1.29
[26] | 0.7
[27] | 0.32
[28] | 4.92

percent inhibition of viability [%]
Conditions | 1 nM | 10 nM | 100 nM | 1000 nM | 10000 nM
[2] | -2.37 | -3.94 | 1.95 | 8.9 | 10.9
[3] | 15.8 | -4.32 | 5.19 | -6.57 | 62.3
[4] | -1.67 | -6.15 | 8.39 | -1.8 | 25.8
[5] | 2.28 | -1.4 | -1.58 | 5.53 | 72.2
[6] | -5.1 | -1.55 | -1.47 | 1.03 | 17
[7] | -15 | -7.75 | 4.16 | 0.58 | 33.7
[8] | -3.26 | -3.19 | 0.56 | 0.95 | 27.2
[9] | -8.07 | -3.94 | -2.69 | 2.99 | 17.2
[10] | 4.94 | 2.4 | 5.77 | 1.04 | 37
[11] | -2.74 | -1.7 | 19.9 | 10.5 | 40.7
[12] | -5.94 | -2.43 | 8.64 | 3.42 | 22.6
[13] | -4.5 | -0.39 | 3.77 | -0.01 | 21.5
[14] | 8.37 | -3.22 | 1.91 | -6.49 | 19
[15] | -6.32 | -2.25 | 0.17 | 25.4 | 38.7

Cn1cc(-c2ccc3nnc(Sc4ccc5ncccc5c4)n3n2)cn1 [SGX-523] (max concentration tested 5000 nM)
Conditions | drug sensitivity score
[1] | 0.89
[16] | 2.87
[17] | 0.02
[18] | 0
[19] | 0.89
[20] | 0
[21] | 0
[22] | 0.89
[23] | 0.58
[24] | 0
[25] | 0.04
[26] | 0
[27] | 0
[28] | 0

percent inhibition of viability [%]
Conditions | 0.5 nM | 5 nM | 50 nM | 500 nM | 5000 nM
[2] | -2.93 | -10.2 | -5.18 | -9.17 | -2.25
[3] | -11.2 | -4.96 | 17.1 | 10.2 | 32.6
[4] | 1.04 | -8.92 | -3.62 | -0.26 | 11.5
[5] | -4.24 | -1.01 | 0.45 | 4.1 | 9.78
[6] | -5.57 | -5.37 | -9.26 | -3.51 | -7.2
[7] | 3.77 | -3.27 | -2.38 | -4.59 | 3.26
[8] | -2.71 | -0.74 | -1.93 | 1.35 | -0.07
[9] | -3.56 | -0.25 | -5.07 | -2.74 | -1.91
[10] | 3.14 | 1.32 | -1.44 | 5.03 | 14.4
[11] | 0.34 | -0.3 | -4.47 | -3.94 | 1.25
[12] | 3.88 | -2.63 | 1.81 | 1.46 | 11.1
[13] | 1.09 | -7.03 | -6.25 | -1.89 | -5.01
[14] | -8.19 | -11.2 | -7.5 | -10.9 | 5.13
[15] | 3.69 | 0.4 | -1.97 | 8.43 | 7.74
